Values of other authors, collected in patent publication US7829544B2, “Aqueous solution preparation containing aminoglycoside antibiotic and bromfenac” (Senju Pharmaceutical Co., Ltd., priority 2003, dated 2010).

Conditions: tobramycin combined with diclofenac sodium

For NC[C@H]1O[C@H](O[C@H]2[C@H](O)[C@@H](O[C@H]3O[C@H](CO)[C@@H](O)[C@H](N)[C@H]3O)[C@H](N)C[C@@H]2N)[C@H](N)C[C@@H]1O [tobramycin], the “behaviour of the combination solution” value is given as “precipitation or suspension formation occurs”.
